# Assays:
# [1] = target: T1, γ-secretase (Macaca fascicularis, UniProt Q8HXW5); test: Aβ levels in CSF and plasma of conscious cynomolgus monkeys after a single dose; format: in vivo, cynomolgus monkeys (Macaca fascicularis); conditions: monkey CSF, 30 mg/kg oral
# T1 construct: γ-secretase complex can be modulated in primates; from tissue; host or cells: living cynomolgus monkeys; Aβ read out in CSF and plasma
# [2] = tested on: γ-secretase; design: method as in PMID 17962197; conditions: APP transgenic mice, cited from earlier work
# [3] = tested on: γ-secretase; test: GSM activity in vitro: Aβ42 and total Aβ ELISA of conditioned media of CHO cells expressing APP-WT or APP-V717F; format: cell-based, Chinese hamster; conditions: for ED50 (in vitro GSM activity): Fig. 1
# From the text: Conditioned media were collected and Aβ42 and total Aβ levels were quantified by ELISA analyses. […] All experiments were repeated at least twice. Results are presented as mean ± range. GSM gamma-secretase modulator
# [4] = target: T1, γ-secretase; test: Aβ levels in CSF and plasma of conscious cynomolgus monkeys after a single dose; format: in vivo, cynomolgus monkeys (Macaca fascicularis)
# Protocol: The effects of drugs on CSF and plasma Aβ ratios in monkeys and plasma Aβ ratios in humans were analyzed by a two-way analysis of variance with a post hoc Bonferroni posttest (GraphPad Prism, La Jolla, CA, USA).
# Aβ42, Aβ38 and total Aβ levels in CSF samples were measured. During the observation period, there was variation in Aβ levels in untreated animals (Fig. 2a–c) without a clear diurnal pattern, consistent with the reports from catheter studies in humans. Animals were then treated with drugs in subsequent weeks sequentially. Between each treatment, all animals were rested for 1 week to allow drug washout. […] In light of the CSF results, the effects of GSM-1 were mirrored in plasma. […] This was evident as early as 2 h following drug administration and plateaued starting at 4 h. GSM-1 reduced the ratio of Aβ42/Aβ40 up to 40 % at 6 h after dosing.
# Cerebrospinal fluid (CSF) and plasma samples were collected at indicated time points and amyloid beta-peptide (Aβ) levels were measured. Levels of total Aβ (a), Aβ42 (b) and Aβ38 (c) were compared in CSF samples. […] The levels and ratios were normalized to baseline (time 0 or before drug dosing) and shown as percentages of baseline. Seven monkeys were used in the no-treatment group. […] Results are presented as mean ± SEM; *p < 0.05, **p < 0.001. GSM gamma-secretase modulator
# [5] = tested on: γ-secretase; design: method as in PMID 11700559, PMID 12897211; conditions: Tg2576 mice, 50 mg/kg for 3 days; cited from earlier work
# [6] = Plasma drug concentration in mice treated with ibuprofen for 3 days (literature); format: in vivo; conditions: Tg2576 (APP transgenic line), mouse, 50 mg/kg daily for 3 days, from 43 μM and ~5.5 % unbound, read-out: estimated unbound concentration in plasma
# [7] = monkey, 100 mg/kg oral, first sampled time point, all but one animal
# [8] = Adverse events in the human study; conditions: healthy humans, 800 mg IV single dose or placebo
# [9] = in vivo; conditions: female, cynomolgus monkey, po, 100 mg/kg
# [10] = clinical; conditions: human
# [11] = mild to moderate AD, 400 mg twice daily, 1 year; cited from earlier work
# [12] = design: method as in PMID 12897211; conditions: mice, 50 mg/kg daily for 3 days, 2 h after the last dose; cited from earlier work
# [13] = design: method as in PMID 17650315, PMID 20009055; conditions: late-phase human clinical trial; cited from earlier work
smiles,measurement,setting,value
CC(C)CC[C@H](c1ccc(Cl)cc1)N1CC[C@@H](CC(=O)O)C[C@H]1c1ccc(C(F)(F)F)cc1 [GSM-1],CSF Aβ38 level (mean ± SD),"[1]; 8 h postdosing, baseline 1033.3 ± 300.0",1954.8 ± 698.6 pg/mL
same,CSF Aβ42 level (mean ± SD),"[1]; 12 h postdosing, baseline 267.1 ± 60.0",183.5 ± 96.1 pg/mL
same,lowering of brain Aβ42,[2]; single dose 3 mg/kg,25%
same,reduction of brain Aβ42,[2]; single dose 30 mg/kg,70%
same,effect on Aβ38 levels,[2]; single dose,concomitantly increased
same,effect on ratio of Aβ42 to total Aβ,"[3]; CHO APP-WT or APP-V717F, 24 h, dose-dependent, p < 0.001",significantly reduced
same,concentration giving 50 % reduction of the ratio of Aβ42 to total Aβ,"[3]; CHO cells expressing APP-WT or APP-V717F, 24 h incubation, ELISA",0.2 µM
same,ED50 (in vitro GSM activity),[3],approximately 200 nM
same,time of maximum reduction in CSF,"[4]; monkey CSF, 30 mg/kg oral",8 to 12 h
same,effect on CSF total Aβ levels,"[4]; monkey CSF, 30 mg/kg oral single dose",did not change
same,maximal increase in CSF Aβ38 levels,"[4]; monkey CSF, 30 mg/kg oral single dose, 8 h postdosing",~ 90%
same,maximal reduction in CSF Aβ42 levels,"[4]; monkey CSF, 30 mg/kg oral single dose, 12 h postdosing",~ 32%
same,maximal increase of the ratio of Aβ38 to total Aβ in CSF,"[4]; monkey CSF, 30 mg/kg oral, after 8 h, p < 0.05",70%
same,"ratio of Aβ42 to total Aβ in CSF, relative to baseline","[4]; monkey CSF, single dose 30 mg/kg, baseline to postdosing",65%
same,reduction of the ratio of Aβ42/Aβ40 in plasma,"[4]; monkey plasma, 30 mg/kg oral, 6 h after dosing",up to 40%
same,time at which the decrease of plasma Aβ42/Aβ40 ratio was first evident,"[4]; monkey plasma, 30 mg/kg oral, plateaued starting at 4 h",2 h
same,"ratio of Aβ42 to Aβ40 in plasma, relative to baseline","[4]; monkey plasma, single dose 30 mg/kg, baseline to postdosing",60%
same,effect on ratio of Aβ42/Aβ40 in plasma,"[4]; monkey plasma, single dose, Fig. 2f",markedly decreased
CC(C)Cc1ccc(C(C)C(=O)O)cc1 (centres unmarked) [ibuprofen],effect on Aβ40 levels (reduced or not),[5],not
same,effect on Aβ42 levels,[5],significantly reduced
same,concentration at 3 days,[6],~2370 nM
same,time of highest concentrations in plasma and CSF,[7],2 h
same,adverse events during the study period,[8],no adverse events were observed
same,AUC(0-t),[9]; CSF,36.4 ± 11.8 µM·h
same,AUC(0-t),[9]; plasma,3740 ± 924 µM·h
same,ED50 (in vitro GSM activity),[3],250 to 500 µM
same,AUC(0-t),"[10]; both, in vivo, iv, 800 mg",831 ± 156 µM·h
same,time of return of plasma levels to baseline,[10]; 800 mg IV,≤ 8 h
same,time of highest plasma levels,"[10]; 800 mg IV, first time sampled",1 h
same,clinical benefit,[11],no benefit
same,average plasma drug concentration,[12],43 µM
C[C@@H](C(=O)O)c1ccc(-c2ccccc2)c(F)c1 [tarenflurbil],clinical efficacy,[13],not to be effective
